Reference: patent US4250259A, “Microbiological production of ketones from C3 -C6 secondary alcohols” (priority 1979, dated 1981)

Tests used:
[1] = tested on: secondary alcohol dehydrogenase (SADH), cell-free soluble extract; experiment: oxidation of sec-alcohols by cell-free soluble extracts; assay type: biochemical, Methylobacterium organophilum CRL 26 (NRRL B-11,222); settings: for Oxidation Rate, sec-alcohol to corresponding ketone: soluble crude extract, grown on methanol
Procedure: (§1) To prepare the cell-free secondary alcohol dehydrogenase (SADH) system, the washed cells were disrupted with a Wave Energy Ultrasonic Oscillator, Model W201 (Wave Energy System, Inc., Newtown, Pa.) and centrifuged at 20,000×g. for 30 minutes. […] The enzyme activity was measured with a fluorescence spectrophotometer (Perkin Elmer, Model MPF 44A) by following the formation of reduced NAD (EX 340 nm, Em 460 nm). The formation of reduced NAD was also followed with an absorption spectrophotometer at 340 nm. The assay system (3 ml.) contained: potassium phosphate buffer pH 7.0; 150 μmol.; NAD 1 μmol.; a given amount of enzyme preparation; and secondary alcohol 10 μmol. The reaction was started by the addition of substrate. One unit of enzyme activity represents the reduction of one μmole NAD per minute. Protein concentrations were determined by the Lowry method (J. Biol. Chem., 193: 255-275 (1951)).
(§2) The experimental procedure for the tests reported in Table VIII were as follows: 1 mg protein of crude extract was added into a 0.5 ml. 0.05 M phosphate buffer (pH 7.0) in a 10-ml. vial. […] The reaction mixture was incubated at 30° C. on a water bath. A 3 μl sample was removed with a syringe at 15 min. of incubation and was assayed with g.l.c. Catalytic activity was also assayed by fluorescence spectrophotometry.

[2] = tested on: secondary alcohol dehydrogenase (SADH), cell-free soluble extract; experiment: as above; assay type: biochemical, Methylococcus capsulatus CRL M1 (NRRL B-11,219); settings: for Oxidation Rate, sec-alcohol to corresponding ketone: soluble crude extract, grown on methanol
Procedure: as §1, §2

[3] = tested on: cell extracts (NAD+-dependent secondary alcohol dehydrogenase); experiment: sec-alcohols to methyl ketones by cell extracts of yeasts, gas chromatography; assay type: biochemical, Candida utilis ATCC 26,387; settings: grown on methanol
Procedure: The supernantant liquid was termed the crude extracts.
The reaction mixture, in a total of 3.0 ml., contained 50 mM phosphate buffer, pH 7.0, 20 μmole NAD^+, cell extracts (1 ml.).
The ketone product obtained from oxidation of sec-alcohols by cell extracts of organisms were estimated by flame ionization gas chromatography by using a stainless steel column (12 ft. by 1/8 in.) packed with 10% Carbowax 20 M on 80/100 chromosorb w column (Perkin Elmer Corp., Norwalk, Conn.). The column temperature was maintained isothermally at 130° C. and the carrier gas flow was 30 ml. of helium per min. […] The protein content of cell-suspensions was determined by the Lowry et al. method.
NRRL Y-11,328 Torulopsis sp.

[4] = tested on: cell extracts (NAD+-dependent secondary alcohol dehydrogenase); experiment: as above; assay type: biochemical, Kloeckera sp. strain A2 NRRL-Y-11,420; settings: grown on methanol
[5] = tested on: Methylocystis parvus OBBP (NRRL B-11,198); experiment: sec-alcohols to ketones by resting cell suspensions; assay type: cell-based
Procedure: (§3) The pH of the nutrient medium was adjusted to 7.0 by the addition of acid or base and 50 ml. samples of the nutrient medium were charged into a plurality of 300 ml. shaker flasks. The shaker flasks were inoculated with an inoculating loop of cells from an agar plate containing homogeneous colonies of the microorganisms on the plate (the purity of the isolates was confirmed by microscopic examination). The isolates had been maintained on methanol (0.4% V/V) agar plates or on agar plates under an atmosphere of methane and air having a 1:1 V/V gas ratio which had been transferred every two weeks. For growth on methanol, the medium was supplemented with 0.4% methanol. For growth on methane, the gaseous phase of the inoculated flasks was replaced with a gas mixture comprised of methane and air having a ratio of 1:1 on a V/V basis. The inoculated flasks were sealed air-tight and were incubated on a rotary shaker of orbital radius 2.5 cm. at 250 rpm and at 30° C. for two days until turbidity in the medium had developed. The cells were harvested by centrifugation at 10,000×g. at 4° C. for 30 minutes. The cell pellet was washed twice with a 0.05 M phosphate buffer at a pH of 7.0 (containing 0.02 M MgCl2). The washed cells were then suspended in a 0.05 M phosphate buffer at pH 7.0.
(§4) A 0.5 ml. sample of each washed cell suspension (2 mg. cells) was put into 10 ml. vials at 4° C. which were sealed with a rubber cap. The gaseous phase of the vials was removed with vacuum and then was replaced with a gas mixture of the substrate reactant (i.e., alkane or secondary alcohol) and oxygen at a 1:1 V/V ratio. (In the case of a liquid substrate, i.e., secondary alcohol, 10 μl of the substrate was put in the 10 ml. vials). […] Samples of product (1-3 μl) were withdrawn periodically with a microsyringe and the products were analyzed by gas chromatography (ionization flame detector column).
(§5) The procedure in Example 1 was repeated wherein a plurality of the methane-utilizing methylotrophic microorganisms were each grown aerobically in a nutrient medium containing methane as the alcohol dehydrogenase enzyme inducer and as the major carbon and energy source for growth. The cells were harvested and washed as described in Example 1. The resting microbial cells of the induced methane-grown methane-utilizing methylotrophic microorganisms were then contacted with C3 -C6 secondary alcohols in a buffered solution by the procedure of Example 1.
(§6) In this example, the procedure in Example 1 was repeated except that a plurality of methane-utilizing methylotrophic microorganisms were each aerobically grown in a methanol-containing nutrient medium instead of a methane-containing medium. The nutrients in the medium were the same as indicated in Example 1 except that 0.4% V/V methanol was used as the alcohol dehydrogenase inducer and major source of carbon and energy for growth. Following growth, the cells were harvested and washed as described in Example 1.
(§7) The resting cells of the induced methanol-grown methylotrophic microorganisms were then contacted with secondary alcohols in a buffered solution by the procedure described in Example 1.

[6] = tested on: Methylobacter capsulatus Y (NRRL B-11,201); experiment: as above; assay type: cell-based
Procedure: as §3, §4, §5, §6, §7

[7] = tested on: Methylomonas methanica S1 (NRRL B-11,199); experiment: as above; assay type: cell-based
Procedure: as §3, §4, §5, §6, §7

[8] = tested on: Methylococcus capsulatus, Texas (ATCC 19069); experiment: as above; assay type: cell-based
Procedure: as §3, §4, §5, §6, §7

[9] = tested on: cell extracts (NAD+-dependent secondary alcohol dehydrogenase); experiment: sec-alcohols to methyl ketones by cell extracts of yeasts, gas chromatography; assay type: biochemical, Pichia sp. NRRL-Y-11,328; settings: grown on methanol
[10] = tested on: secondary alcohol dehydrogenase (SADH), cell-free soluble extract; experiment: oxidation of sec-alcohols by cell-free soluble extracts; assay type: biochemical, Pseudomonas sp. CRL 75 (ATCC 21,439); settings: for Oxidation Rate, sec-alcohol to corresponding ketone: soluble crude extract, grown on methanol
Procedure: as §1, §2

Pichia sp. NRRL-Y-11328 = experiment: sec-alcohols to ketones by cell suspensions of yeasts; assay type: cell-based

Structure (SMILES)	Oxidation Rate, sec-alcohol to corresponding ketone [1] [nmole/min/mg protein]	Oxidation Rate, sec-alcohol to corresponding ketone [2] [nmole/min/mg protein]	Conversion Rate, sec-alcohol to methyl ketone [3] [μmoles/hr/mg Protein]	Conversion Rate, sec-alcohol to methyl ketone [4] [μmoles/hr/mg Protein]	Conversion Rates, sec-alcohol to corresponding ketone ([5]; cells grown on methane) [μmoles/hr/mg protein]	Conversion Rates, sec-alcohol to corresponding ketone ([5]; cells grown on methanol) [μn moles/hr/mg protein]	Conversion Rates, sec-alcohol to corresponding ketone ([6]; cells grown on methane) [μmoles/hr/mg protein]	Conversion Rates, sec-alcohol to corresponding ketone ([6]; cells grown on methanol) [μn moles/hr/mg protein]	Conversion Rates, sec-alcohol to corresponding ketone ([7]; cells grown on methane) [μmoles/hr/mg protein]	Conversion Rates, sec-alcohol to corresponding ketone ([7]; cells grown on methanol) [μn moles/hr/mg protein]	Conversion Rates, sec-alcohol to corresponding ketone ([8]; cells grown on methane) [μmoles/hr/mg protein]	Conversion Rates, sec-alcohol to corresponding ketone ([8]; cells grown on methanol) [μn moles/hr/mg protein]	Conversion Rate, sec-alcohol to methyl ketone [9] [μmoles/hr/mg Protein]	Oxidation Rate, sec-alcohol to corresponding ketone [10] [nmole/min/mg protein]	Conversion Rate, sec-alcohol to corresponding ketone (Pichia sp. NRRL-Y-11328; Growth Substrate Ethanol)	Conversion Rate, sec-alcohol to corresponding ketone (Pichia sp. NRRL-Y-11328; Growth Substrate Methanol)	Conversion Rate, sec-alcohol to corresponding ketone (Pichia sp. NRRL-Y-11328; Growth Substrate Methylamine)	Conversion Rate, sec-alcohol to corresponding ketone (Pichia sp. NRRL-Y-11328; Growth Substrate Methylformate)	Conversion Rate, sec-alcohol to corresponding ketone (Pichia sp. NRRL-Y-11328; Growth Substrate Propylamine)	further results
CCCC(C)O (stereo not shown) [2-Pentanol, 2-pentanol]	0.1	0.1	0.82	1.2	0.80	0.82	0.5	0.60	0.25	0.45	2.5	3.5	1.2	1.2	1.0 μmoles/hr/mg of protein	1.2 μmoles/hr/mg of protein	0.72 μmoles/hr/mg of protein	0.98 μmoles/hr/mg of protein	0.60 μmoles/hr/mg of protein	–
CCCCC(C)O (stereo not shown) [2-Hexanol, 2-hexanol]	0	0	0.45	0.25	0.065	0.05	0.1	0.12	0.01	0.04	1.0	1.3	0.60	0	0.28 μmoles/hr/mg of protein	0.50 μmoles/hr/mg of protein	0.31 μmoles/hr/mg of protein	0.48 μmoles/hr/mg of protein	0.21 μmoles/hr/mg of protein	–
CCC(C)O (stereo not shown) [2-Butanol, 2-butanol]	2.5	2.0	4.92	5.9	1.1	1.0	0.84	1.5	0.39	0.40	0.60	0.70	6.2	25.0	6.2 μmoles/hr/mg of protein	6.8 μmoles/hr/mg of protein	5.1 μmoles/hr/mg of protein	6.9 μmoles/hr/mg of protein	2.1 μmoles/hr/mg of protein	Conversion Rate, 2-butanol to 2-butanone ([1]; Growth Substrate CH3 NH2): 2.0 nmoles/min/mg protein; Conversion Rate, 2-butanol to 2-butanone ([1]; Growth Substrate CH3 OH): 2.5 nmoles/min/mg protein; Conversion Rate, 2-butanol to 2-butanone ([1]; Growth Substrate CH4): 1.8 nmoles/min/mg protein; Conversion Rate, 2-butanol to 2-butanone ([1]; Growth Substrate HCOOCH3): 2.0 nmoles/min/mg protein; Conversion Rate, 2-butanol to 2-butanone ([2]; Growth Substrate CH3 NH2): 1.8 nmoles/min/mg protein; Conversion Rate, 2-butanol to 2-butanone ([2]; Growth Substrate CH3 OH): 2.0 nmoles/min/mg protein; Conversion Rate, 2-butanol to 2-butanone ([2]; Growth Substrate CH4): 3.2 nmoles/min/mg protein; Conversion Rate, 2-butanol to 2-butanone ([2]; Growth Substrate HCOOCH3): 2.0 nmoles/min/mg protein; Conversion Rate, 2-butanol to 2-butanone ([10]; Growth Substrate CH3 OH): 25.0 nmoles/min/mg protein
CC(C)O [2-Propanol, 2-propanol]	2.1	1.7	4.5	4.8	0.32	0.25	0.15	0.52	0.40	0.35	0.80	0.75	5.5	21.2	4.5 μmoles/hr/mg of protein	5.2 μmoles/hr/mg of protein	4.2 μmoles/hr/mg of protein	4.9 μmoles/hr/mg of protein	3.2 μmoles/hr/mg of protein	–
